Laboratory results as given in patent US7037693B2, “Muskmelon (Cucumis melo) hydroperoxide lyase and uses thereof” (Vanderbilt University, priority 2000, dated 2006).
Where “and” joins values, the source holds several entries; their conditions need not be identical. Equal entries are not always repeated. Each block holds one molecule with its values, some of them ahead of it.

Legend:
[1] = biological target: melon 9-hydroperoxide lyase (9-HPL) (Cucumis melo, UniProt A0A1S3BZK9); experiment: Kinetics of melon 9-HPL with fatty acid hydroperoxide substrates (spectrophotometric assay, decrease in absorbance at 235 nm); type: biochemical; conditions: relative to 9-hydroperoxylinolenic acid; 'preferably approximately' value
Protocol: The resulting pellet of cells was resuspended in Tris-acetate buffer (0.1 M, pH 7.6) containing sucrose (0.5 M), EDTA (0.5 mM) and lysozyme (1 mg/ml). After 30 min on ice, the mixture was centrifuged as before to obtain a pellet of spheroplastes. These were resuspended in potassium phosphate buffer (0.1 M, pH 7.6) containing magnesium acetate (6 mM), glycerol (20% v/v) and DTT (0.1 mM) and the mixture left for 10 min at −80° C. Following this, a protease inhibitor was added (PMSF, 1 mM) and the cells sonicated (2×30 seconds). […] Compared to the control protein produced from vector alone with no cDNA insert, there was less protein, but the bacterial lysates of each gave easily measurable catalytic activity. By monitoring the disappearance of the UV-235 nm absorbance of the fatty acid hydroperoxide substrates, less than 1 μl (<10 μg crude protein) of the suspended and lysed bacterial pellets were required in order to observe reaction in a 1 ml UV cuvette. Measurement was made using the spectrophotometric assay (decrease in absorbance at 235 nm) and the initial rates of reaction. The turnover number of the purified 9-HPL enzyme (number of product molecules formed per molecule of enzyme) using 9S-hydroperoxylinoleic acid as substrate was calculated from the known concentration of the enzyme (measured at the Soret maximum at 416 nm, and using a molar extinction coefficient of 100,000), and the measured rates of change of substrate concentration (using the molar extinction coefficient of 23,000 at 235 nm of the conjugated diene).

[2] = substrate: CC/C=C\C[C@@H](/C=C/C=C\CCCCCCCC(=O)O)OO; experiment: as above; type: biochemical, Cucumis melo; conditions: 95% confidence limits given; pH 7.6
Protocol: (§1) The resulting pellet of cells was resuspended in Tris-acetate buffer (0.1 M, pH 7.6) containing sucrose (0.5 M), EDTA (0.5 mM) and lysozyme (1 mg/ml). After 30 min on ice, the mixture was centrifuged as before to obtain a pellet of spheroplastes. These were resuspended in potassium phosphate buffer (0.1 M, pH 7.6) containing magnesium acetate (6 mM), glycerol (20% v/v) and DTT (0.1 mM) and the mixture left for 10 min at −80° C. Following this, a protease inhibitor was added (PMSF, 1 mM) and the cells sonicated (2×30 seconds). […] By monitoring the disappearance of the UV-235 nm absorbance of the fatty acid hydroperoxide substrates, less than 1 μl (<10 μg crude protein) of the suspended and lysed bacterial pellets were required in order to observe reaction in a 1 ml UV cuvette. Measurement was made using the spectrophotometric assay (decrease in absorbance at 235 nm) and the initial rates of reaction. The turnover number of the purified 9-HPL enzyme (number of product molecules formed per molecule of enzyme) using 9S-hydroperoxylinoleic acid as substrate was calculated from the known concentration of the enzyme (measured at the Soret maximum at 416 nm, and using a molar extinction coefficient of 100,000), and the measured rates of change of substrate concentration (using the molar extinction coefficient of 23,000 at 235 nm of the conjugated diene).

[3] = substrate: CCCCC/C=C\C=C\[C@H](CCCCCCCC(=O)O)OO; experiment: as above; type: biochemical, Cucumis melo; conditions: 95% confidence limits given; pH 7.6
Protocol: as §1

[4] = pH dependence of the activity of the lyase; type: biochemical, Cucumis melo

- Vmax as percentage of the Vmax of the lyase for 9-hydroperoxylinolenic acid [1]: approximately 30%
Molecule: CCCCC[C@@H](/C=C/C=C\CCCCCCCC(=O)O)OO [13-hydroperoxylinoleic acid, (9Z,11E,13S)13-hydroperoxyoctadeca-9,11-dienoic acid]

- Vmax as percentage of the Vmax of the lyase for 9-hydroperoxylinolenic acid [1]: approximately 22%
Molecule: CC/C=C\C[C@@H](/C=C/C=C\CCCCCCCC(=O)O)OO [13-hydroperoxylinolenic acid, (9Z, 11E, 13S, 15Z) 13-hydroperoxyoctadeca-9,11,15-trienoic acid]

- Km as percentage of the Km of the lyase for 9-hydroperoxylinolenic acid [1]: approximately 54%
- Vmax as percentage of the Vmax of the lyase for 9-hydroperoxylinolenic acid [1]: approximately 55%
Molecule: CCCCC/C=C\C=C\[C@H](CCCCCCCC(=O)O)OO [9-hydroperoxylinoleic acid, (9S, 10E, 12Z) 9-hydroperoxyoctadeca-10,12-dienoic acid]

B1: melon 9-hydroperoxide lyase (9-HPL) (Cucumis melo) (protein)
chain: MATPSSSSPELPLKPIPGGYGFPFLGPIKDRYDYFYFQGRDEFFRSRITKYNSTVFRANMPPGPFISSDSRVVVLLDALSFPILFDTAKVEKRNILDGTYMPSLSFTGNIRTCAYLDPSETEHSVLKRLFLSFLASRHDRFIPLFRSSLSEMFVKLEDKLSEKKKIADFNSISDSMSFDYVFRLLSDGTPDSKLAAEGPGMFDLWLVFQLAPLASIGLPKIFSVFEDLVIHTIPLPFFPVKSGYRKLYEAFYSSSGSFLDEAEKQGIDREKACHNLVFLAGFNAYGGMKVLFPTLLKWVGTAGEDLHRKLAEEVRTTVKEEGGLTFSALEKMSLLKSVVYEALRIEPPVPFQYGKAKEDIVIQSHDSSFKIKKGETIFGYQPFATKDPKIFKDSEKFVGDRFVGEEGEKLLKYVYWSNERETVEPTAENKQCPGKNLVVLIGRIMVVEFFLRYDTFTVEVADLPLGPAVKFKSLTRATDMV
- Km [2]: 50 µM and 51 µM
- Km [3]: 192 µM

- activity as percentage of maximal activity ([4]; pH 5.0): approximately 25%
- activity as percentage of maximal activity ([4]; pH 9.0): approximately 15%
B2: lyase: fatty acid 9-hydroperoxide lyase of muskmelon (Cucumis melo), SEQ ID NO:7, recombinantly expressed in E. coli (protein)
chain: B1 chain
modifications: Cucumis melo
